{"source": "paper PMC10555500", "about": "“Evaluation of the Antiproliferative Properties of CpRu Complexes Containing N-Methylated Triazaphosphaadamantane Derivatives” (Bioinorganic Chemistry and Applications, 2023)", "key": {"[1]": {"system": "MCF-7 breast cancer cells", "assay": "MTT cytotoxicity assay, MCF-7 cells", "type": "cell-based, human", "details": "24 h incubation, average of at least three experiments (±SD)", "experimental": "(§1) The MDA-MB-231 and MCF-7 human breast cancer cells were purchased from ATCC. The MDA-MB-231 and MCF-7 cells were grown in Dulbecco's modified Eagles' medium (DMEM high glucose) (Capricorn Scientific) at 37°C in 5% CO2 supplemented with 10% fetal bovine serum (Capricorn Scientific). HDF cells were purchased from Merck and were grown in the fibroblast growth medium. All cells were adherent in monolayers and, upon confluence, were washed with phosphate buffer saline (PBS) and harvested by digestion with trypsin-EDTA 0.05% (v/v). The cells were suspended and transferred into new, sterile, culture flasks for maintenance or seeded in sterile test microplates for different assays. All cells were manipulated under aseptic conditions in a flow chamber.\nThe cells were adherent in monolayers and, upon confluence, were harvested by digestion with trypsin. The cytotoxicity of the complexes against the tumour cells was assessed using the colorimetric assay MTT […], which evaluates the metabolic activity of viable cells. This assay measures the conversion of yellow tetrazolium into purple formazan by an active mitochondrial dehydrogenase in living cells. For this purpose, the cells (10–20 × 10^3 in 200 μL of the medium) were seeded into 96-well plates and incubated in a 5% CO2 incubator at 37°C. The cells were settled for 24 h followed by the addition of a dilution series of the complexes in a medium (200 μL). The complexes were first solubilized in 100% DMSO, given a 10 mM stock solution, and then in a medium within the concentration range of 0.1–100 µM. […] The cellular viability was evaluated by measuring the absorbance at 570 nm by using a microplate spectrophotometer. […]\nThe cells were adherent in monolayers and, upon confluency, were harvested by digestion with trypsin. The cytotoxicity of the complexes against the tumour cells was assessed using the colorimetric assay MTT […], which evaluate the metabolic activity of viable cells. […]"}, "[2]": {"assay": "Stability in DMSO-d6 and DMSO-d6/D2O monitored by 31P{1H} NMR", "type": "physicochemical", "source_text": "The assessment of the biological properties of the complexes requires their dissolution in a cell culture medium which is mainly constituted by water. When the complex is not hydrosoluble enough, the used protocol contemplates preliminary dissolution in DMSO before the addition to the culture medium. Thus, it is important to determine the stability and behaviour of the complexes in both DMSO and water/DMSO mixtures to check whether different species have been formed when dissolved. Dissolutions in DMSO-d6 and DMSO-d6/D2O of the new complexes 8 and 11 were monitored by ^31P{^1H} NMR over time at room temperature and 37°C. The stability studies of the rest of the complexes (1‐7, 9, 10) were published previously. All experiments were performed by a similar procedure: the complex (0.01 g) was introduced into a 5 mm NMR tube and dissolved in 0.5 mL of degassed solvent (DMSO-d6 and a 1 : 1 mixture of DMSO-d6/D2O). The solution was left at room temperature and monitored by ^31P{^1H} NMR first every 15 minutes, and later in longer periods. Stability was also monitored at incubation cell-based assay temperature (37°C).\nAll compounds were studied for their stability in 100% DMSO-d6 and DMSO-d6/D2O mixture by using NMR spectroscopy in common aerobic conditions. All experiments were performed by a similar procedure: the complex (0.01 g) was introduced into a 5 mm NMR tube and dissolved in 0.5 mL of degassed solvent (DMSO-d6 and a 1:1 mixture of DMSO-d6/D2O). The solution was left at room temperature and monitored by ^31P{^1H} NMR first every 15 minutes, and later in longer time periods. Stability was also monitored at incubation cell-based assays temperature (37 °C)."}, "[3]": {"system": "normal human fibroblasts (HDF)", "assay": "MTT cytotoxicity assay, normal human dermal fibroblasts", "type": "cell-based", "experimental": "as §1\nThe cells were adherent in monolayers and, upon confluence, were harvested by digestion with trypsin. The cytotoxicity of the complexes against the tumour cells was assessed using the colorimetric assay MTT […], which evaluates the metabolic activity of viable cells. This assay measures the conversion of yellow tetrazolium into purple formazan by an active mitochondrial dehydrogenase in living cells. For this purpose, the cells (10–20 × 10^3 in 200 μL of the medium) were seeded into 96-well plates and incubated in a 5% CO2 incubator at 37°C. The cells were settled for 24 h followed by the addition of a dilution series of the complexes in a medium (200 μL). The complexes were first solubilized in 100% DMSO, given a 10 mM stock solution, and then in a medium within the concentration range of 0.1–100 µM. […] After 24 h of incubation, the treatment solutions were removed by aspiration, and MTT solution (200 μL, 0.5 mg·mL^−1 in PBS) was added to each well. After 3 h at 37°C/5% CO2, the solution was removed, and the purple formazan crystals formed inside the cells were dissolved in DMSO (200 μL) by thorough shaking. The cellular viability was evaluated by measuring the absorbance at 570 nm by using a microplate spectrophotometer. The IC50 values were obtained by dose-response curves using the GraphPad Prism software (vs. 5)."}}, "data": [{"compound": "CN1CN2CN(C)C[P]([Ru+2]([P](c3ccccc3)(c3ccccc3)c3ccccc3)[P](c3ccccc3)(c3ccccc3)c3ccccc3)(C1)C2.O=S(=O)([O-])C(F)(F)F.[Cl][Pd][Cl].c1cc[cH-]c1", "note": "[Compound 11, [RuCp(PPh3)2-µ-dmoPTA-1κP-2κ^2N,N′-PdCl2](CF3SO3)]", "values": [{"measurement": "IC50", "setting": "[1]", "result": "730 ± 110", "unit": "nM"}, {"measurement": "Fraction converted to complex 8 (solvolysis) in DMSO", "setting": "[2]; DMSO-d6, visible after 4 h, constant up to 48 h", "result": "< 7", "unit": "%"}, {"measurement": "Stability in DMSO-d6", "setting": "[2]; room temperature and 37°C, 48 h, 31P{1H} NMR", "result": "very stable"}, {"measurement": "IC50", "setting": "[3]; 24 h incubation, MTT, normal human fibroblasts", "result": "1590 ± 450", "unit": "nM"}, {"measurement": "Fold less cytotoxic for fibroblasts (HDF) than for MCF-7 cells", "setting": "[3]; selectivity HDF vs MCF-7", "result": "2-3 fold"}, {"measurement": "Fold less cytotoxic for fibroblasts (HDF) than for MDA-MB-231 cells", "setting": "[3]; selectivity HDF vs MDA-MB-231", "result": 1.5, "unit": "fold"}]}]}
